Patent publication US11090319B2, “Therapeutic uses of pharmaceutical compositions comprising cyclic boronic acid ester derivatives” (Melinta Subsidiary Corp., priority 2010, dated 2021)

Columns and labels:
[1] = molecular target: OXA-2, lysate of KX1000 (Salmonella typhimurium, UniProt P0A1V8); assay: Inhibition of ceftazidime hydrolysis by bacterial lysate
[2] = molecular target: various β-lactamases (bacterial lysates) (Escherichia coli, UniProt Q53TY8); assay: Inhibition of nitrocefin cleavage by bacterial lysates, Table 11; format: biochemical; conditions: lysate EC1010 pAmpC (CMY-6), read-out: NCF IC50 EC1010 pAmpC (CMY-6)
various β-lactamases (bacterial lysates), sequence (Q53TY8 entry or part of it): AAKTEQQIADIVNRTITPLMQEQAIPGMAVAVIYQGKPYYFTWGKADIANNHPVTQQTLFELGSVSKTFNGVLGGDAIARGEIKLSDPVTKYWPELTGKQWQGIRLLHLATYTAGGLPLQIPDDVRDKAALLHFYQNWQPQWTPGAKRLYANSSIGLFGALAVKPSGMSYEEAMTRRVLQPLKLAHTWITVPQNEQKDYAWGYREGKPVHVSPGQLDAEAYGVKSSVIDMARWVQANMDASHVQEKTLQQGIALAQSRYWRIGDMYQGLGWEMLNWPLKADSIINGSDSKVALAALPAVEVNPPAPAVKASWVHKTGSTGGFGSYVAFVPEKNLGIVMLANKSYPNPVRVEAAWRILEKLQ

[3] = system: ECL1004 Enterobacter cloacae NMC-A; assay: Checkerboard assay, biapenem potentiation; conditions: Biapenem MIC 8-fold; ECL1004 NMC-A class A
[4] = molecular target: SHV-12, lysate of KP1010 (Klebsiella pneumoniae, UniProt P0AD64, E235K/G234S/L31Q); assay: Inhibition of ceftazidime hydrolysis by bacterial lysate
SHV-12, lysate of KP1010, sequence (P0AD64 22-286 L31Q/G234S/E235K): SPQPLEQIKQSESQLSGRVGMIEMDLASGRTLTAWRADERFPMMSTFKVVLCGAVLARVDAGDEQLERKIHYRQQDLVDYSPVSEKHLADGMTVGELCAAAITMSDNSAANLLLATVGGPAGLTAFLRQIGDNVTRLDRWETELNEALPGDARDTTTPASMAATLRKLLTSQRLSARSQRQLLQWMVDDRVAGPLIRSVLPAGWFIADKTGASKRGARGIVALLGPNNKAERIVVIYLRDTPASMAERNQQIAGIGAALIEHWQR

[5] = molecular target: CTX-M-15, lysate of KP1009 (Escherichia coli, UniProt Q9EXV5); assay: as above
CTX-M-15, lysate of KP1009, sequence (Q9EXV5 entry or part of it): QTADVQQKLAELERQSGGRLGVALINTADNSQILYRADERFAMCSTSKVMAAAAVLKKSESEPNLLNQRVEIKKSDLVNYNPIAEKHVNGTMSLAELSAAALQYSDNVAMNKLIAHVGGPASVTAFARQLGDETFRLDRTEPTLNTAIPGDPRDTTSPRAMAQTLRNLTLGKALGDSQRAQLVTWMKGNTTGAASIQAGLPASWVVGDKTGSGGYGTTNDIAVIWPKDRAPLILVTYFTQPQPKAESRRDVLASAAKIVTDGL

[6] = system: strains expressing KPC alone or in combination with additional beta-lactamases; assay: microbe, parasite or virus in culture; format: cell-based
[7] = Enterobacter cloacae ECL1058, KPC-3, SHV-11, TEM-1, Compound 5 0.31 mg/L
[8] = Enterobacter cloacae ECL1058, KPC-3, SHV-11, TEM-1, Compound 5 0.625 mg/L
[9] = Enterobacter cloacae ECL1059, KPC-3, SHV-12, TEM-1, Compound 5 0.31 mg/L
[10] = Enterobacter cloacae ECL1059, KPC-3, SHV-12, TEM-1, Compound 5 0.625 mg/L
[11] = Enterobacter cloacae ECL1059, KPC-3, SHV-12, TEM-1, Compound 5 5 mg/L
[12] = Enterobacter cloacae ECL1059, KPC-3, SHV-12, TEM-1, Compound 5 10 mg/L
[13] = Enterobacter cloacae ECL1059, KPC-3, SHV-12, TEM-1, Compound 5 […]
[14] = Escherichia coli EC1007, KPC-3, Compound 5 0.31 mg/L
[15] = Escherichia coli EC1007, KPC-3, Compound 5 0.625 mg/L
[16] = Escherichia coli EC1007, KPC-3, Compound 5 5 mg/L
[17] = Escherichia coli EC1007, KPC-3, Compound 5 10 mg/L
[18] = Escherichia coli EC1007, KPC-3, Compound 5 […]
[19] = Klebsiella oxytoca KX1017, KPC-2, OXA-2, SHV-30, Compound 5 0.31 mg/L
[20] = Klebsiella oxytoca KX1017, KPC-2, OXA-2, SHV-30, Compound 5 0.625 mg/L
[21] = Klebsiella oxytoca KX1017, KPC-2, OXA-2, SHV-30, Compound 5 5 mg/L
[22] = Klebsiella oxytoca KX1017, KPC-2, OXA-2, SHV-30, Compound 5 10 mg/L
[23] = Klebsiella oxytoca KX1018, KPC-2, SHV-40, OXY-1, Compound 5 0.31 mg/L
[24] = Klebsiella oxytoca KX1018, KPC-2, SHV-40, OXY-1, Compound 5 0.625 mg/L
[25] = Klebsiella oxytoca KX1018, KPC-2, SHV-40, OXY-1, Compound 5 […]
[26] = Klebsiella oxytoca KX1019, KPC-2 OXA-2, Compound 5 0.625 mg/L
[27] = Klebsiella pneumoniae KP 1004, KPC-2, Compound 5 0.31 mg/L
[28] = Klebsiella pneumoniae KP 1004, KPC-2, Compound 5 0.625 mg/L

OXA-2, lysate of KX1000, sequence (P0A1V8 22-275): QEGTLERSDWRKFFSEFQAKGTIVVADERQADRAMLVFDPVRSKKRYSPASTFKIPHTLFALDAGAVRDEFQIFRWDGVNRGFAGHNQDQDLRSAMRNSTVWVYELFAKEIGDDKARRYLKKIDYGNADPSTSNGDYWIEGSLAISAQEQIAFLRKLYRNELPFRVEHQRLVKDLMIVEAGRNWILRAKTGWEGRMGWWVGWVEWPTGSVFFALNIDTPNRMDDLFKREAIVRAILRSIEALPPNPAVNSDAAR

O=C(O)C[C@@H]1CC[C@H](NC(=O)Cc2cccs2)B(O)O1 [Compound 5, 2-((3R,6S)-2-hydroxy-3-(2-(thiophen-2-yl)acetamido)-1,2-oxaborinan-6-yl)acetic acid]
IC50 [1]: < 337 nM
IC50 [2]: > 6730 nM
MPC8 [3]: Y (MPC8 of 0.16 μg/mL to 1 μg/mL)
IC50 [4]: 337 to 3370 nM
IC50 [5]: < 337 nM
potentiation of carbapenems [6]: significantly potentiate multiple carbapenems
MIC of Doripenem [6, 7]: Y (MIC of 0.5 mg/L to 4 mg/L)
MIC of Ertapenem [6, 7]: Z (MIC of greater than 4 mg/L)
MIC of Doripenem [6, 8]: Y (MIC of 0.5 mg/L to 4 mg/L)
MIC of Ertapenem [6, 8]: Z (MIC of greater than 4 mg/L)
MIC of Ertapenem ([6]; Enterobacter cloacae ECL1058, KPC-3, SHV-11, TEM-1, Compound 5 5 mg/L): X (MIC of less than 0.5 mg/L)
MIC of Ertapenem ([6]; Enterobacter cloacae ECL1058, KPC-3, SHV-11, TEM-1, Compound 5 10 mg/L): X (MIC of less than 0.5 mg/L)
MIC of Doripenem ([6]; Enterobacter cloacae ECL1058, KPC-3, SHV-11, TEM-1, Compound 5 […]): Y (MIC of 0.5 mg/L to 4 mg/L)
MIC of Doripenem [6, 9]: X (MIC of less than 0.5 mg/L)
MIC of Ertapenem [6, 9]: X (MIC of less than 0.5 mg/L)
MIC of Doripenem [6, 10]: X (MIC of less than 0.5 mg/L)
MIC of Ertapenem [6, 10]: X (MIC of less than 0.5 mg/L)
MIC of Biapenem [6, 11]: X (MIC of less than 0.5 mg/L)
MIC of Doripenem [6, 11]: X (MIC of less than 0.5 mg/L)
MIC of Ertapenem [6, 11]: X (MIC of less than 0.5 mg/L)
MIC of Biapenem [6, 12]: X (MIC of less than 0.5 mg/L)
MIC of Doripenem [6, 12]: X (MIC of less than 0.5 mg/L)
MIC of Ertapenem [6, 12]: X (MIC of less than 0.5 mg/L)
MIC of Biapenem [6, 13]: X (MIC of less than 0.5 mg/L)
MIC of Doripenem [6, 13]: X (MIC of less than 0.5 mg/L)
MIC of Ertapenem [6, 13]: X (MIC of less than 0.5 mg/L)
MIC of Doripenem [6, 14]: X (MIC of less than 0.5 mg/L)
MIC of Ertapenem [6, 14]: X (MIC of less than 0.5 mg/L)
MIC of Doripenem [6, 15]: X (MIC of less than 0.5 mg/L)
MIC of Ertapenem [6, 15]: X (MIC of less than 0.5 mg/L)
MIC of Doripenem [6, 16]: X (MIC of less than 0.5 mg/L)
MIC of Ertapenem [6, 16]: X (MIC of less than 0.5 mg/L)
MIC of Biapenem [6, 17]: X (MIC of less than 0.5 mg/L)
MIC of Doripenem [6, 17]: X (MIC of less than 0.5 mg/L)
MIC of Ertapenem [6, 17]: X (MIC of less than 0.5 mg/L)
MIC of Doripenem [6, 18]: X (MIC of less than 0.5 mg/L)
MIC of Ertapenem [6, 18]: X (MIC of less than 0.5 mg/L)
MIC of Biapenem [6, 19]: Y (MIC of 0.5 mg/L to 4 mg/L)
MIC of Doripenem [6, 19]: Y (MIC of 0.5 mg/L to 4 mg/L)
MIC of Ertapenem [6, 19]: Y (MIC of 0.5 mg/L to 4 mg/L)
MIC of Doripenem [6, 20]: Y (MIC of 0.5 mg/L to 4 mg/L)
MIC of Ertapenem [6, 20]: Y (MIC of 0.5 mg/L to 4 mg/L)
MIC of Biapenem [6, 21]: X (MIC of less than 0.5 mg/L)
MIC of Doripenem [6, 21]: X (MIC of less than 0.5 mg/L)
MIC of Ertapenem [6, 21]: X (MIC of less than 0.5 mg/L)
MIC of Biapenem [6, 22]: X (MIC of less than 0.5 mg/L)
MIC of Doripenem [6, 22]: X (MIC of less than 0.5 mg/L)
MIC of Ertapenem [6, 22]: X (MIC of less than 0.5 mg/L)
MIC of Biapenem [6, 23]: X (MIC of less than 0.5 mg/L)
MIC of Doripenem [6, 23]: X (MIC of less than 0.5 mg/L)
MIC of Ertapenem [6, 23]: X (MIC of less than 0.5 mg/L)
MIC of Biapenem [6, 24]: X (MIC of less than 0.5 mg/L)
MIC of Doripenem [6, 24]: X (MIC of less than 0.5 mg/L)
MIC of Ertapenem [6, 24]: X (MIC of less than 0.5 mg/L)
MIC of Biapenem [6, 25]: X (MIC of less than 0.5 mg/L)
MIC of Doripenem [6, 25]: X (MIC of less than 0.5 mg/L)
MIC of Ertapenem [6, 25]: X (MIC of less than 0.5 mg/L)
MIC of Ertapenem ([6]; Klebsiella oxytoca KX1019, KPC-2 OXA-2, Compound 5 0.31 mg/L): Y (MIC of 0.5 mg/L to 4 mg/L)
MIC of Doripenem [6, 26]: Y (MIC of 0.5 mg/L to 4 mg/L)
MIC of Ertapenem [6, 26]: Y (MIC of 0.5 mg/L to 4 mg/L)
MIC of Ertapenem ([6]; Klebsiella oxytoca KX1019, KPC-2 OXA-2, Compound 5 5 mg/L): X (MIC of less than 0.5 mg/L)
MIC of Ertapenem ([6]; Klebsiella oxytoca KX1019, KPC-2 OXA-2, Compound 5 10 mg/L): X (MIC of less than 0.5 mg/L)
MIC of Ertapenem ([6]; Klebsiella oxytoca KX1019, KPC-2 OXA-2, Compound 5 […]): Y (MIC of 0.5 mg/L to 4 mg/L)
MIC of Biapenem [6, 27]: X (MIC of less than 0.5 mg/L)
MIC of Doripenem [6, 27]: X (MIC of less than 0.5 mg/L)
MIC of Ertapenem [6, 27]: Y (MIC of 0.5 mg/L to 4 mg/L)
MIC of Biapenem [6, 28]: X (MIC of less than 0.5 mg/L)
MIC of Doripenem [6, 28]: X (MIC of less than 0.5 mg/L)
MIC of Ertapenem [6, 28]: Y (MIC of 0.5 mg/L to 4 mg/L)
